Laboratory results from patent US8722723B2, “Aromatic amide derivative” (Research Foundation Itsuu Laboratory, priority 2008, dated 2014).

Key:
luciferase (Luc) = experiment: Reporter assay: Hela cells transfected with human RORα1 expression vector and luciferase (Luc) reporter vector; Luc activity corrected with β-Gal activity; type: cell-based, firefly; design: key: β-Gal-corrected Luc activity; smaller = inhibition, larger = promotion; conditions: human RORα1 expression vector, rev-DR2/TK-Luc reporter, about 1 day, smaller number = inhibitory, larger = promoting
Experimental: The reporter assay was used, in which Hela cells transfected with each of a pcDNA3 vector incorporated with the human RORα1 so that the gene can be expressed in animal cells as an expression vector, and a pGL3 promoter vector of which SV40 promoter was replaced with TK promoter as a luciferase expression reporter vector were used.
The Hela cells were placed at a density of 2×10^4 cells/0.1 mL/well on a 96-well cell culture plate (FALCON) by using 10% FBS-DMEM. On the next day, the human RORα1 expression vector, the reporter vector incorporated with 3 copies of rev-DR2 sequences and the HSV thymidine kinase promoter at a position upstream from the luciferase (Luc) gene, and a β-galactosidase (β-Gal) expression vector for control were introduced into the cells by using a transfection reagent (Fugene6, Roche). On the next day, the medium was replaced with 5% FBS-DMEM containing a test compound diluted at a prescribed concentration, after about 1 day, the cell supernatant was removed, then the cells were lysed (Passive Lysis buffer, Promega), the Luc substrate (PicaGene, Toyo Ink) was added to a part of the lysed cells, and the activity of produced Luc was measured as luminescence intensity. Further, the β-Gal activity was measured as intensity of fluorescence generated when 4-methylumbelliferyl β-D-galactoside was added as a substrate, and the activity of Luc corrected for the transfection efficiency with the β-Gal activity was used as the index for evaluation. A smaller number indicates inhibitory action, and a larger number indicates promoting action.

SMILES | melting point [°C] | activity of Luc corrected for the transfection efficiency with the β-Gal activity (luciferase (Luc); test compound 1 μM) | activity of Luc corrected for the transfection efficiency with the β-Gal activity (luciferase (Luc); test compound 10 μM) | activity of Luc corrected for the transfection efficiency with the β-Gal activity (luciferase (Luc); test compound 0.01 μM) | activity of Luc corrected for the transfection efficiency with the β-Gal activity (luciferase (Luc); test compound 0.1 μM)
CCCc1ccc(N2Cc3cc(N(C)C)ccc3C2=O)cc1 [Compound 1, 5-dimethylamino-2-(4-propyl-phenyl)-isoindol-1-one] | 160 to 161 | – | – | – | –
CCCc1ccc(N2Cc3ccc(N(C)C)cc3C2=O)cc1 [Compound 2, 6-dimethylamino-2-(4-propyl-phenyl)-isoindol-1-one] | 141 to 142 | 2.8 | 3.0 | – | –
CCCCc1ccc(N2Cc3cc(N(C)C)ccc3C2=O)cc1 [Compound 3, 5-dimethylamino-2-(4-n-butyl-phenyl)-isoindol-1-one] | 133 to 134 | – | – | – | –
CC(C)c1ccc(N2Cc3cc(N(C)C)ccc3C2=O)cc1 [Compound 5, 5-dimethylamino-2-(4-isopropyl-phenyl)-isoindol-1-one] | 167 to 169 | – | – | – | –
CC(C)c1ccc(N2Cc3ccc(N(C)C)cc3C2=O)cc1 [Compound 6, 6-dimethylamino-2-(4-isopropyl-phenyl)-isoindol-1-one] | 169 to 170 | – | – | – | –
CCCCCCCc1ccc(N2Cc3cc(N(C)C)ccc3C2=O)cc1 [Compound 7, 5-dimethylamino-2-(4-n-heptyl-phenyl)-isoindol-1-one] | 133 to 134 | 1.1 | 1.1 | 1.0 | 1.1
CCCCCCCc1ccc(N2Cc3ccc(N(C)C)cc3C2=O)cc1 [Compound 8, 6-dimethylamino-2-(4-n-heptyl-phenyl)-isoindol-1-one] | 101 to 102 | – | – | – | –
CCCCCCCCc1ccc(N2Cc3cc(N(C)C)ccc3C2=O)cc1 [Compound 9, 5-dimethylamino-2-(4-n-octyl-phenyl)-isoindol-1-one] | 128 to 129 | – | – | – | –
CCCCCCCCc1ccc(N2Cc3ccc(N(C)C)cc3C2=O)cc1 [Compound 10, 6-dimethylamino-2-(4-n-octyl-phenyl)-isoindol-1-one] | 100 to 101 | 0.3 | 0.4 | 0.9 | 0.7
CN(C)c1ccc2c(c1)CN(c1ccc(C3CCCCC3)cc1)C2=O [Compound 11, 5-dimethylamino-2-(4-cyclohexyl-phenyl)-isoindol-1-one] | – | 2.1 | 2.6 | – | –
CN(C)c1cccc2c1C(=O)N(c1ccccc1)C2 [Compound 13, 7-dimethylamino-2-phenyl-2,3-dihydro-isoindol-1-one] | 58 to 60 | – | – | – | –
COc1ccc(N2Cc3cccc(N(C)C)c3C2=O)cc1 [Compound 14, 7-dimethylamino-2-(4-methoxyphenyl)-2,3-dihydro-isoindol-1-one] | 145 to 146 | 3.1 | 2.4 | 1.9 | 2.6
CCOC(=O)CCCc1ccc(N2Cc3cc(N(C)C)ccc3C2=O)cc1 [Compound 15, 4-[4-(5-dimethylamino-1-oxo-1,3-dihydro-isoindol-2-yl)-phenyl]-butyric acid ethyl ester] | 116 to 117 | – | – | – | –
CN(C)c1ccc2c(c1)CN(c1ccc(CCCC(=O)O)cc1)C2=O [Compound 16, 4-[4-(5-dimethylamino-1-oxo-1,3-dihydro-isoindol-2-yl)-phenyl]-butyric acid] | 179 to 180 | – | – | – | –
CCOC(=O)CCCc1ccc(N2Cc3ccc(N(C)C)cc3C2=O)cc1 [Compound 17, 4-[4-(6-dimethylamino-1-oxo-1,3-dihydro-isoindol-2-yl)-phenyl]-butyric acid ethyl ester] | – | 0 | 0.0 | 0.2 | 0
CN(C)c1ccc2c(c1)C(=O)N(c1ccc(CCCC(=O)O)cc1)C2 [Compound 18, 4-[4-(6-dimethylamino-1-oxo-1,3-dihydro-isoindol-2-yl)-phenyl]-butyric acid] | 186 to 187 | 0.0 | 0.0 | 0.1 | 0

SMILES | melting point [°C] | activity of Luc corrected for the transfection efficiency with the β-Gal activity (luciferase (Luc); test compound 1 μM) | activity of Luc corrected for the transfection efficiency with the β-Gal activity (luciferase (Luc); test compound 10 μM) | activity of Luc corrected for the transfection efficiency with the β-Gal activity (luciferase (Luc); test compound 0.01 μM) | activity of Luc corrected for the transfection efficiency with the β-Gal activity (luciferase (Luc); test compound 0.1 μM)
CCOC(=O)CCCc1ccc(N2Cc3ccccc3C2=O)cc1 [Compound 19, 4-[4-(1-oxo-1,3-dihydro-isoindol-2-yl)-phenyl]-butyric acid ethyl ester] | 94 to 96 | – | – | – | –
O=C(O)CCCc1ccc(N2Cc3ccccc3C2=O)cc1 [Compound 20, 4-[4-(1-oxo-1,3-dihydro-isoindol-2-yl)-phenyl]-butyric acid] | 128 to 129 | – | – | – | –
COC(=O)CCc1ccc(N2Cc3ccc(N(C)C)cc3C2=O)cc1 [Compound 21, 3-[4-(6-dimethylamino-1-oxo-1,3-dihydro-isoindol-2-yl)-phenyl]-propionic acid methyl ester] | 123 to 124 | – | – | – | –
CN(C)c1ccc2c(c1)C(=O)N(c1ccc(CCC(=O)O)cc1)C2 [Compound 22, 3-[4-(6-dimethylamino-1-oxo-1,3-dihydro-isoindol-2-yl)-phenyl]-propionic acid] | 200 to 201 | – | – | – | –
CCOC(=O)C=Cc1ccc(N2Cc3ccccc3C2=O)cc1 [Compound 23, 3-[4-(1-oxo-1,3-dihydro-isoindol-2-yl)-phenyl]-acrylic acid ethyl ester] | 184 to 185 | 0.6 | 0.5 | 0.8 | 0.9
O=C(O)C=Cc1ccc(N2Cc3ccccc3C2=O)cc1 [Compound 24, 3-[4-(1-oxo-1,3-dihydro-isoindol-2-yl)-phenyl]-acrylic acid] | – | 0.5 | 0.4 | 0.9 | 0.7
COC(=O)COc1ccc(N2Cc3ccc([N+](=O)[O-])cc3C2=O)cc1 [Compound 25, [4-(6-nitro-1-oxo-1,3-dihydro-isoindol-2-yl)-phenoxy]-acetic acid methyl ester] | 238 to 239 | – | – | – | –
COC(=O)COc1ccc(N2Cc3ccc(N)cc3C2=O)cc1 [Compound 26, [4-(6-amino-1-oxo-1,3-dihydro-isoindol-2-yl)-phenoxy]-acetic acid methyl ester] | 197 to 198 | – | – | – | –
COC(=O)COc1ccc(N2Cc3ccc(N(C)C)cc3C2=O)cc1 [Compound 27, [4-(6-dimethylamino-1-oxo-1,3-dihydro-isoindol-2-yl)-phenoxy]-acetic acid methyl ester] | 167 to 168 | – | – | – | –
CN(C)c1ccc2c(c1)C(=O)N(c1ccc(CCCC(=O)OC(C)(C)C)cc1)C2 [Compound 31, 4-[4-(6-dimethylamino-1-oxo-1,3-dihydro-isoindol-2-yl)-phenyl]-butyric acid tert-butyl ester] | – | 0.1 | 0.0 | 0.8 | 0.4
CCCCCCCNc1cccc2c1CN(c1cc(C)cc(C)c1)C2=O [Compound 33, 2-(3,5-dimethyl-phenyl)-4-heptylamino-2,3-dihydro-isoindol-1-one] | 68 to 69 | – | – | – | –
CN(C)c1cccc(C(=O)Nc2ccc(CCCC(=O)O)cc2)c1 [Compound 34, 4-[4-(3-dimethylamino-benzoylamino)-phenyl]-butyric acid] | 127 to 128 | – | – | – | –
CCOC(=O)CCCc1ccc(NC(=O)c2cc([N+](=O)[O-])ccc2C)cc1 [Compound 37, 4-[4-(2-methyl-5-nitro-benzoylamino)-phenyl]-butyric acid ethyl ester] | 108 to 109 | – | – | – | –
Cc1ccc([N+](=O)[O-])cc1C(=O)Nc1ccc(CCCC(=O)O)cc1 [Compound 38, 4-[4-(2-methyl-5-nitro-benzoylamino)-phenyl]-butyric acid] | 172 to 173 | – | – | – | –
CCOC(=O)CCCc1ccc(NC(=O)c2cc(C)ccc2[N+](=O)[O-])cc1 [Compound 39, 4-[4-(5-methyl-2-nitro-benzoylamino)-phenyl]-butyric acid ethyl ester] | 126 to 127 | – | – | – | –
